Source: PubChem BioAssay (NCI)
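48-hour exposure; five concentrations; linearly interpolated endpoints. TGI is the concentration that stops growth completely.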

How the values were obtained:
Test in all cases: inhibition of tumour cell growth, NCI panel, 48 h
HOP-92 NSCLC = tested on: HOP-92 NSCLC
OVCAR-8 ovarian = tested on: OVCAR-8 ovarian
DMS 273 small cell lung = tested on: DMS 273 small cell lung
UACC-257 melanoma = tested on: UACC-257 melanoma
SNB-19 CNS = tested on: SNB-19 CNS
DMS 114 small cell lung = tested on: DMS 114 small cell lung
M19-MEL melanoma = tested on: M19-MEL melanoma
SNB-75 CNS = tested on: SNB-75 CNS
MDA-MB-231 breast = tested on: MDA-MB-231 breast
MOLT-4 leukemia = tested on: MOLT-4 leukemia
IGROV1 ovarian = tested on: IGROV1 ovarian
MDA-MB-435 = tested on: MDA-MB-435
HL-60(TB) leukemia = tested on: HL-60(TB) leukemia
SK-MEL-2 melanoma = tested on: SK-MEL-2 melanoma
HS 578T breast = tested on: HS 578T breast
OVCAR-4 ovarian = tested on: OVCAR-4 ovarian
SNB-78 CNS = tested on: SNB-78 CNS
SK-OV-3 ovarian = tested on: SK-OV-3 ovarian
LOX IMVI melanoma = tested on: LOX IMVI melanoma
RXF-631 renal = tested on: RXF-631 renal
HCT-15 colon = tested on: HCT-15 colon
RXF 393 renal = tested on: RXF 393 renal
UACC-62 melanoma = tested on: UACC-62 melanoma
MALME-3M melanoma = tested on: MALME-3M melanoma
SN12C renal = tested on: SN12C renal
A549 NSCLC = tested on: A549 NSCLC
PC-3 prostate = tested on: PC-3 prostate
NCI-H460 lung = tested on: NCI-H460 lung
SF-268 CNS = tested on: SF-268 CNS
DU-145 prostate = tested on: DU-145 prostate
HCC-2998 colon = tested on: HCC-2998 colon
SK-MEL-28 melanoma = tested on: SK-MEL-28 melanoma
NCI-H23 lung = tested on: NCI-H23 lung
SR leukemia = tested on: SR leukemia
TK-10 renal = tested on: TK-10 renal
BT-549 breast = tested on: BT-549 breast
M14 melanoma = tested on: M14 melanoma
CCRF-CEM leukemia = tested on: CCRF-CEM leukemia
HOP-18 NSCLC = tested on: HOP-18 NSCLC
SF-295 CNS = tested on: SF-295 CNS
NCI-H522 lung = tested on: NCI-H522 lung
RPMI-8226 leukemia = tested on: RPMI-8226 leukemia
KM20L2 colon = tested on: KM20L2 colon
SW-620 colon = tested on: SW-620 colon
SK-MEL-5 melanoma = tested on: SK-MEL-5 melanoma
HCT-116 colon = tested on: HCT-116 colon
ACHN renal = tested on: ACHN renal
MCF7 breast = tested on: MCF7 breast
T-47D breast = tested on: T-47D breast
MDA-N = tested on: MDA-N
NCI-H226 lung = tested on: NCI-H226 lung
A498 renal = tested on: A498 renal
NCI/ADR-RES ovarian = tested on: NCI/ADR-RES ovarian
KM12 colon = tested on: KM12 colon
SF-539 CNS = tested on: SF-539 CNS
COLO 205 colon = tested on: COLO 205 colon
OVCAR-3 ovarian = tested on: OVCAR-3 ovarian
K-562 leukemia = tested on: K-562 leukemia
EKVX NSCLC = tested on: EKVX NSCLC
LXFL 529 NSCLC = tested on: LXFL 529 NSCLC
U251 CNS = tested on: U251 CNS
786-0 renal = tested on: 786-0 renal
DLD-1 colon = tested on: DLD-1 colon
HT29 colon = tested on: HT29 colon
OVCAR-5 ovarian = tested on: OVCAR-5 ovarian
UO-31 renal = tested on: UO-31 renal
HOP-62 NSCLC = tested on: HOP-62 NSCLC
CAKI-1 renal = tested on: CAKI-1 renal

## O=C(/C=C/c1ccc(OCCSCCCCCCCCCCSCCOc2ccc(/C=C/C(=O)c3ccc(Cl)cc3)cc2)cc1)c1ccc(Cl)cc1
HOP-92 NSCLC
  TGI: 81.6 µM
OVCAR-8 ovarian
  TGI: > 100 µM
DMS 273 small cell lung
  TGI: > 100 µM
UACC-257 melanoma
  TGI: > 100 µM
SNB-19 CNS
  TGI: > 100 µM
DMS 114 small cell lung
  TGI: > 100 µM
M19-MEL melanoma
  TGI: > 100 µM
SNB-75 CNS
  TGI: 63.3 µM
MDA-MB-231 breast
  TGI: > 100 µM
MOLT-4 leukemia
  TGI: > 100 µM
IGROV1 ovarian
  TGI: > 100 µM
MDA-MB-435
  TGI: > 100 µM
HL-60(TB) leukemia
  TGI: > 100 µM
SK-MEL-2 melanoma
  TGI: > 100 µM
HS 578T breast
  TGI: > 100 µM
OVCAR-4 ovarian
  TGI: > 100 µM
SNB-78 CNS
  TGI: > 100 µM
SK-OV-3 ovarian
  TGI: > 92.8 µM
LOX IMVI melanoma
  TGI: > 100 µM
RXF-631 renal
  TGI: > 100 µM
HCT-15 colon
  TGI: > 100 µM
RXF 393 renal
  TGI: > 80.6 µM
UACC-62 melanoma
  TGI: > 100 µM
MALME-3M melanoma
  TGI: > 100 µM
SN12C renal
  TGI: > 100 µM
A549 NSCLC
  TGI: > 100 µM
PC-3 prostate
  TGI: > 100 µM
NCI-H460 lung
  TGI: > 100 µM
SF-268 CNS
  TGI: > 100 µM
DU-145 prostate
  TGI: > 100 µM
HCC-2998 colon
  TGI: > 100 µM
SK-MEL-28 melanoma
  TGI: > 100 µM
NCI-H23 lung
  TGI: > 100 µM
SR leukemia
  TGI: > 100 µM
TK-10 renal
  TGI: > 100 µM
BT-549 breast
  TGI: > 100 µM
M14 melanoma
  TGI: > 100 µM
CCRF-CEM leukemia
  TGI: > 100 µM
HOP-18 NSCLC
  TGI: > 100 µM
SF-295 CNS
  TGI: > 97.6 µM
NCI-H522 lung
  TGI: > 100 µM
RPMI-8226 leukemia
  TGI: > 100 µM
KM20L2 colon
  TGI: > 100 µM
SW-620 colon
  TGI: > 100 µM
SK-MEL-5 melanoma
  TGI: > 100 µM
HCT-116 colon
  TGI: > 100 µM
ACHN renal
  TGI: > 100 µM
MCF7 breast
  TGI: > 100 µM
T-47D breast
  TGI: > 100 µM
MDA-N
  TGI: > 100 µM
NCI-H226 lung
  TGI: > 100 µM
A498 renal
  TGI: > 100 µM
NCI/ADR-RES ovarian
  TGI: > 100 µM
KM12 colon
  TGI: > 100 µM
SF-539 CNS
  TGI: > 81.7 µM
COLO 205 colon
  TGI: > 100 µM
OVCAR-3 ovarian
  TGI: > 100 µM
K-562 leukemia
  TGI: > 100 µM
EKVX NSCLC
  TGI: > 100 µM
LXFL 529 NSCLC
  TGI: > 100 µM
U251 CNS
  TGI: > 100 µM
786-0 renal
  TGI: > 100 µM
DLD-1 colon
  TGI: > 100 µM
HT29 colon
  TGI: > 100 µM
OVCAR-5 ovarian
  TGI: > 100 µM
UO-31 renal
  TGI: > 100 µM
HOP-62 NSCLC
  TGI: 95.4 µM
CAKI-1 renal
  TGI: > 100 µM

## O=C1C=CC(=O)c2ccc(=O)ccc21
HOP-92 NSCLC
  TGI: 3.72 µM
OVCAR-8 ovarian
  TGI: 64.5 µM
DMS 273 small cell lung
  TGI: 58.1 µM
UACC-257 melanoma
  TGI: 30.4 µM
SNB-19 CNS
  TGI: 27.1 µM
DMS 114 small cell lung
  TGI: 33.9 µM
M19-MEL melanoma
  TGI: 25.5 µM
SNB-75 CNS
  TGI: 39 µM
MDA-MB-231 breast
  TGI: 45.5 µM
MOLT-4 leukemia
  TGI: 5.69 µM
IGROV1 ovarian
  TGI: 33.6 µM
MDA-MB-435
  TGI: 46 µM
HL-60(TB) leukemia
  TGI: 15.8 µM
SK-MEL-2 melanoma
  TGI: 34.8 µM
HS 578T breast
  TGI: > 100 µM
OVCAR-4 ovarian
  TGI: 27.8 µM
SNB-78 CNS
  TGI: 64.5 µM
SK-OV-3 ovarian
  TGI: 48.8 µM
LOX IMVI melanoma
  TGI: > 54.1 µM
RXF-631 renal
  TGI: 42.3 µM
HCT-15 colon
  TGI: 35.8 µM
RXF 393 renal
  TGI: 16.3 µM
UACC-62 melanoma
  TGI: 29.9 µM
MALME-3M melanoma
  TGI: 39.6 µM
SN12C renal
  TGI: 32.2 µM
A549 NSCLC
  TGI: 64.2 µM
PC-3 prostate
  TGI: 33 µM
NCI-H460 lung
  TGI: 43.2 µM
SF-268 CNS
  TGI: 32.9 µM
DU-145 prostate
  TGI: 59.9 µM
HCC-2998 colon
  TGI: 31.3 µM
SK-MEL-28 melanoma
  TGI: 42.6 µM
NCI-H23 lung
  TGI: 45.5 µM
SR leukemia
  TGI: 6.3 µM
TK-10 renal
  TGI: 33.9 µM
BT-549 breast
  TGI: 31.9 µM
M14 melanoma
  TGI: 31.1 µM
HOP-18 NSCLC
  TGI: 39.1 µM
SF-295 CNS
  TGI: 37.1 µM
NCI-H522 lung
  TGI: 5.82 µM
RPMI-8226 leukemia
  TGI: > 29.7 µM
KM20L2 colon
  TGI: 46.2 µM
SW-620 colon
  TGI: 14.4 µM
SK-MEL-5 melanoma
  TGI: 38.3 µM
HCT-116 colon
  TGI: 31.6 µM
ACHN renal
  TGI: 23.5 µM
MCF7 breast
  TGI: > 100 µM
T-47D breast
  TGI: 5.55 µM
MDA-N
  TGI: 28.8 µM
NCI-H226 lung
  TGI: 58.9 µM
A498 renal
  TGI: 41.6 µM
KM12 colon
  TGI: 37.4 µM
SF-539 CNS
  TGI: 43.5 µM
COLO 205 colon
  TGI: 18.9 µM
OVCAR-3 ovarian
  TGI: 26.7 µM
K-562 leukemia
  TGI: 14.6 µM
EKVX NSCLC
  TGI: 50.7 µM
LXFL 529 NSCLC
  TGI: 11.1 µM
U251 CNS
  TGI: 30.1 µM
786-0 renal
  TGI: 32.8 µM
DLD-1 colon
  TGI: 15.6 µM
HT29 colon
  TGI: 50.5 µM
OVCAR-5 ovarian
  TGI: 35 µM
UO-31 renal
  TGI: 22.1 µM
HOP-62 NSCLC
  TGI: 51.5 µM
CAKI-1 renal
  TGI: 21 µM
